According to patent publication US20230122510A1, “CANNABINOID DERIVATIVES” (CANOPY GROWTH CORPORATION, priority 2019, published 2023):

What was measured:
human CB2 receptor = target: T1, human CB2 receptor (Homo sapiens, UniProt P34972); experiment: CB2 radioligand competitive binding assay ([3H]CP 55,940 displacement); conditions: for IC50: displacement of 0.6 nM [3H]CP55,940, membranes of CHO-K1 cells expressing human CB2 receptor; for Selectivity CB2: fold difference between CB1 and CB2 binding, the receptor with higher binding affinity (CB2 over CB1)
T1 construct: host or cells: CHO-K1
T1 sequence (P34972 whole entry): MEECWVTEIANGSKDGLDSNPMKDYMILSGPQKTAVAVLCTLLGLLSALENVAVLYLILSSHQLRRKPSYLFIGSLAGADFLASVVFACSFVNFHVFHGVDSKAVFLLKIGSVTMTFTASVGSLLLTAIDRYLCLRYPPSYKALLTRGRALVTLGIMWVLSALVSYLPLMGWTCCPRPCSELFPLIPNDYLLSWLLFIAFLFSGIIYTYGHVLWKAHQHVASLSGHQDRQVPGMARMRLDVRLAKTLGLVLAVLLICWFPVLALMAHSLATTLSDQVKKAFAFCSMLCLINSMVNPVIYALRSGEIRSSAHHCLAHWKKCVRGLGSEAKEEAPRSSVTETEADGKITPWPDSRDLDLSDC
Description: Compounds of the present disclosure were tested for CB1 receptor binding affinity and for CB2 receptor binding affinity. As used herein, “binding affinity” is represented by the IC50 value, which was experimentally determined as described herein. The lower the IC50 value the higher the binding affinity. A compound of the present disclosure may be said to have “binding selectivity” if it has a higher binding affinity for one receptor compared to the other.
The membranes were prepared from CHO-K1 (Chinese hamster ovary) cells stably transfected with the human CB2 receptor (Cat. #ES-111-C; Perkin Elmer, Boston, Mass.). The cells were grown adherently and maintained in Ham's F12 medium containing 10% fetal bovine serum (FBS), penicillin, streptomycin and geneticin (G418) at 37° C. in a humid atmosphere of 5% CO2 following the manufacturer's instructions.
For membrane preparation the cells were washed with PBS and scraped off the plates in cold homogenization buffer (25 mM HEPES (pH 7.4), 2 mM EDTA) containing protease inhibitor cocktail (Sigma Cat. #P8340). The cell suspension was homogenized with a Pro-PK-01200D Polytron Homogenizer (Pro Scientific) and then centrifuged for 30 min at 120,000×g. The supernatant was discarded and the pellet was re-suspended in the homogenization buffer and stored at −80° C. until the time of use.
In this experiment, 3H radiolabeled CP 55,940, i.e. [3H]CP 55,940 (Perkin Elmer, Boston, Mass.), was used as a radioligand for the CB2 receptor to determine the binding affinity of compounds for the CB2 receptor (Scheme 6; above).
The competition binding experiments (single dose and dose-response) were performed by incubating 0.6 nM of [3H]CP55,940 (specific activity 101 Ci/mmol, Perkin Elmer) and different concentrations of compounds disclosed herein with membranes prepared as above from CHO-K1 cells expressing human CB2 receptor (1 μg of protein/well), 50 mM Tris-HCl (pH 7.4), 5 mM MgCl2, 1 mM CaCl2, and 2 mg/mL BSA.
For the single dose experiments, the compound stocks (usually 10 mM in DMSO) were diluted to working stocks in the binding buffer to give the final compound concentrations of 10 μM and 1 μM. For the dose-response experiments the test compounds were sequentially diluted to provide the desired concentration range for the […] determination. In each case the compounds were pre-incubated with the membrane for 20 min, before adding the radioligand.
After incubation with the radioligand for 60 min at 37° C., the incubation was terminated by rapid filtration of assay mixture through MultiScreen®HTS^+ 96-well filter plates (Millipore, Cat. #MSFCNXB), pre-soaked for 60 min with 50 mM Tris-HCl (pH 7.4) containing 0.33% polyethylenimine (PEI). The nonspecific binding (NSB) was determined in the presence of 10 μM unlabelled CP55,940. After drying the filter plate at 50° C. for at least 60 min, the filter-bound radioactivity was determined by scintillation spectrometry using the 1450 MicroBeta Plate Counter (Perkin Elmer, Boston, Mass.). From the dose-response experiments, the IC50 values were determined (see Table 1, CB2 IC50).
Where the test compound had about the same affinity for both receptors, this is represented by a value of 1.00 in the column for both receptors.

human CB1 receptor = target: T2, human CB1 receptor (Homo sapiens, UniProt P21554); experiment: CB1 radioligand competitive binding assay ([3H]CP 55,940 displacement); conditions: for IC50: displacement of 0.8 nM [3H]CP 55,940, membranes of CHO-K1 cells expressing human CB1 receptor; for Selectivity CB1: fold difference between CB1 and CB2 binding, (CB1 over CB2)
T2 construct: host or cells: CHO-K1
T2 sequence (P21554 whole entry): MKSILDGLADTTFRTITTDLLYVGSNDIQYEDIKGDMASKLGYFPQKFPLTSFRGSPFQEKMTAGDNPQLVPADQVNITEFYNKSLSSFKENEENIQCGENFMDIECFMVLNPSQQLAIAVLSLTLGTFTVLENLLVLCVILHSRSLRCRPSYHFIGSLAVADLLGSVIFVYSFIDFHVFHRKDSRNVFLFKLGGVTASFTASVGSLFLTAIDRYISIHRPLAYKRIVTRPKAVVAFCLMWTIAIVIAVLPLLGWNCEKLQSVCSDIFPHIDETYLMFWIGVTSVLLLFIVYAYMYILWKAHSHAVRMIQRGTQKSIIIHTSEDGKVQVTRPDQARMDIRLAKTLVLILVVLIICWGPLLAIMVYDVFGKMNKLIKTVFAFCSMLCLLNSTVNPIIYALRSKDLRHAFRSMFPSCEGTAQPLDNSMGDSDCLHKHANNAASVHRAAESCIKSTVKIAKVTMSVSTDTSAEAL

SMILES	IC50 (human CB2 receptor)	Selectivity CB2 (human CB2 receptor)	IC50 (human CB1 receptor)	Selectivity CB1 (human CB1 receptor)
CCCCCc1cc(O)c(C/C=C(\C)CCC=C(C)C)c(O)c1-c1cncnc1 [Compound 13, 2-(3,7-dimethylocta-2,6-dien-1-yl)-5-pentyl-4-(pyrimidin-5-yl) benzene-1,3-diol]	1000 to 4990 nM	1.85 fold	1000 to 4990 nM	
CCCCCc1cc(O)c(C/C=C(\C)CCC=C(C)C)c(O)c1-c1ccncc1 [Compound 14, 2-(3,7-dimethylocta-2,6-dien-1-yl)-5-pentyl-4-(pyridin-4-yl)benzene-1,3-diol]	500 to 990 nM	2.27 fold	1000 to 4990 nM	
CCCCCc1cc(O)c(C/C=C(\C)CCC=C(C)C)c(O)c1-c1ccco1 [Compound 15, 2-(3,7-dimethylocta-2,6-dien-1-yl)-4-(furan-2-yl)-5-pentylbenzene-1,3-diol]	1000 to 4990 nM	2.11 fold	1000 to 4990 nM	
CCCCCc1cc(O)c(C/C=C(\C)CCC=C(C)C)c(O)c1-c1ccsc1 [Compound 17, 2-(3,7-dimethylocta-2,6-dien-1-yl)-5-pentyl-4-(thiophen-3-yl)benzene-1,3-diol]	500 to 990 nM	2.10 fold	1000 to 4990 nM	
CCCCCc1cc(O)c(C/C=C(\C)CCC=C(C)C)c(O)c1-c1cncs1 [Compound 18, 2-(3,7-dimethylocta-2,6-dien-1-yl)-5-pentyl-4-(thiazol-5-yl) benzene-1,3-diol]	500 to 990 nM	2.32 fold	1000 to 4990 nM	
CCCCCc1cc(O)c(C/C=C(\C)CCC=C(C)C)c(O)c1-c1cc2ccccc2o1 [Compound 32, 4-(benzofuran-2-yl)-2-(3,7-dimethylocta-2,6-dien-1-yl)-5-pentylbenzene-1,3-diol]	1000 to 4990 nM		500 to 990 nM	1.16 fold
CCCCCc1cc(O)c(C/C=C(\C)CCC=C(C)C)c(O)c1-c1cc2ccccc2s1 [Compound 33, 4-(benzo[b]thiophen-2-yl)-2-(3,7-dimethylocta-2,6-dien-1-yl)-5-pentylbenzene-1,3-diol]	500 to 990 nM	1.45 fold	1000 to 4990 nM	
CCCCCc1cc(O)c(C/C=C(\C)CCC=C(C)C)c(O)c1-c1cc(C)cs1 [Compound 34, 2-(3,7-dimethylocta-2,6-dien-1-yl)-4-(4-methylthiophen-2-yl)-5-pentylbenzene-1,3-diol]	< 500 nM	2.15 fold	500 to 990 nM	
CCCCCc1cc(O)c(C/C=C(\C)CCC=C(C)C)c(O)c1-c1ccnn1C [Compound 35, (E)-2-(3,7-dimethylocta-2,6-dien-1-yl)-4-(1-methyl-1H-pyrazol-5-yl)-5-pentylbenzene-1,3-diol]	1000 to 4990 nM	1.21 fold	1000 to 4990 nM	
CCCCCc1cc(O)c(C/C=C(\C)CCC=C(C)C)c(O)c1-c1cccc(N2CCOCC2)c1 [Compound 36, 3-(3,7-dimethylocta-2,6-dien-1-yl)-3′-morpholino-6-pentyl-[1,1′-biphenyl]-2,4-diol]	< 500 nM	8.93 fold	< 500 nM	
CCCCCc1cc(O)c(C/C=C(\C)CCC=C(C)C)c(O)c1-c1c(C)noc1C [Compound 37, 4-(3,5-dimethylisoxazol-4-yl)-2-(3,7-dimethylocta-2,6-dien-1-yl)-5-pentylbenzene-1,3-diol]	1000 to 4990 nM	7.14 fold	> 5000 nM	
CCCCCc1cc(O)c(C/C=C(\C)CCC=C(C)C)c(O)c1-c1cn[nH]c1 [Compound 38, 2-(3,7-dimethylocta-2,6-dien-1-yl)-5-pentyl-4-(1H-pyrazol-4-yl) benzene-1,3-diol]	500 to 990 nM	1.21 fold	500 to 990 nM	
CCCCCc1cc(O)c(C/C=C(\C)CCC=C(C)C)c(O)c1-c1ccnc(C)c1 [Compound 39, 2-(3,7-dimethylocta-2,6-dien-1-yl)-4-(2-methylpyridin-4-yl)-5-pentylbenzene-1,3-diol]	500 to 990 nM	2.18 fold	1000 to 4990 nM	
CCCCCc1cc(O)c(C/C=C(\C)CCC=C(C)C)c(O)c1-c1ccc2nccnc2c1 [Compound 40, 2-(3,7-dimethylocta-2,6-dien-1-yl)-5-pentyl-4-(quinoxalin-6-yl)benzene-1,3-diol]	1000 to 4990 nM		500 to 990 nM	1.65 fold
CCCCCc1cc(O)c(C/C=C(\C)CCC=C(C)C)c(O)c1-c1ccc2[nH]ncc2c1 [Compound 41, 2-(3,7-dimethylocta-2,6-dien-1-yl)-4-(1H-indazol-5-yl)-5-pentylbenzene-1,3-diol]	500 to 990 nM		< 500 nM	79.18 fold
CCCCCc1cc(O)c(C/C=C(\C)CCC=C(C)C)c(O)c1-c1cnc2ccccc2c1 [Compound 42, 2-(3,7-dimethylocta-2,6-dien-1-yl)-5-pentyl-4-(quinolin-3-yl) benzene-1,3-diol]	1000 to 4990 nM		500 to 990 nM	2.69 fold
CCCc1cc(O)c(C/C=C(\C)CCC=C(C)C)c(O)c1-c1ccsc1 [Compound 43, 2-(3,7-dimethylocta-2,6-dien-1-yl)-5-propyl-4-(thiophen-3-yl) benzene-1,3-diol]	500 to 990 nM	2.26 fold	1000 to 4990 nM	
CCCc1cc(O)c(C/C=C(\C)CCC=C(C)C)c(O)c1-c1cc2ccccc2o1 [Compound 44, 4-(benzofuran-2-yl)-2-(3,7-dimethylocta-2,6-dien-1-yl)-5-propylbenzene-1,3-diol]	1000 to 4990 nM		500 to 990 nM	1.67 fold
